Literature values as cited in patent US20040019096A1, “Novel formulations of carvedilol” (priority 2003, published 2004).

Settings: immediate release formulation

- absorption following oral administration: rapidly and extensively absorbed
- terminal elimination half-life (oral administration): 7 to 10 h
Compound: COc1ccccc1OCCNCC(O)COc1cccc2[nH]c3ccccc3c12 (centres unmarked) [carvedilol]
